Values joined by “and” are separate entries in the source; they are usually repeats but may differ in a detail not shown here. Identical values can stand only once. Results filed as inconclusive are left out.

This experiment has as its system nude mice, HT29 intrarenal xenograft, tumor weight T/C. The experiment can be described thus: NCI In Vivo Anticancer Drug Screen. Data for tumor model HT29;CX-1 Human Adenocarcinoma (MER+) (intrarenal inoculation) in NU/NU Swiss (nude) mice. The following applies: endpoint: mean tumor weight change, higher = larger tumour. As for the experimental part: The antitumor activity of compounds was measured in mice bearing transplantable tumors. Survival or tumor size were measured and the results are expressed as the measurement made in the treated group (T) divided by the measurement made in the vehicle treated control group (C). The tumor model used in this assay is HT29;CX-1 Human Adenocarcinoma (MER+) (intrarenal inoculation) in NU/NU Swiss (nude) mice

[1] abbreviates: dose: 25.0 mg/kg/injection, schedule: Q01DX010 (sc), vehicle: saline with Tween-80.
Where [2] appears, read: dose: 50.0 mg/kg/injection, schedule: Q01DX010 (sc), vehicle: saline with Tween-80.
Where [3] appears, read: dose: 100.0 mg/kg/injection, schedule: Q04DX004 (sc), vehicle: suspension in saline.
Setting [4] is: dose: 150.0 mg/kg/injection, schedule: Q04DX004 (sc), vehicle: saline with Tween-80.
Where [5] appears, read: dose: 300.0 mg/kg/injection, schedule: Q04DX004 (sc), vehicle: saline with Tween-80.
The mark [6] stands for this setting: dose: 600.0 mg/kg/injection, schedule: Q04DX004 (sc), vehicle: saline with Tween-80.
Where [7] appears, read: dose: 75.0 mg/kg/injection, schedule: Q04DX004 (sc), vehicle: Klucel (hydroxypropylcellulose) (HPC).
Where [8] appears, read: dose: 150.0 mg/kg/injection, schedule: Q04DX004 (sc), vehicle: Klucel (hydroxypropylcellulose) (HPC).
[9] abbreviates: dose: 300.0 mg/kg/injection, schedule: Q04DX004 (sc), vehicle: Klucel (hydroxypropylcellulose) (HPC).
[10] abbreviates: dose: 600.0 mg/kg/injection, schedule: Q04DX004 (sc), vehicle: Klucel (hydroxypropylcellulose) (HPC).

On to `O=c1cc(CCl)[nH]nc1CCl`, for which the T/C was 90 % of control under setting [1]; 156 % of control under setting [2]; 90 % of control (dose: 100.0 mg/kg/injection, schedule: Q01DX010 (sc), vehicle: saline with Tween-80); 27 % of control (dose: 200.0 mg/kg/injection, schedule: Q01DX010 (sc), vehicle: saline with Tween-80).
`O=C(O)C1(C(=O)O)CCC1.[NH2-].[NH2-].[Pt+2]`: the T/C runs as follows: (dose: 25.0 mg/kg/injection, schedule: Q01DX010 (sc), vehicle: dextrose) 66 % of control and 91 % of control; (dose: 50.0 mg/kg/injection, schedule: Q01DX010 (sc), vehicle: dextrose) 17 % of control.
For `COc1cccc2c1C(=O)c1c(O)c3c(c(O)c1C2=O)C[C@@](O)(/C(C)=N\NC(=O)CO)C[C@@H]3OC1CC(N)C(O)C(C)O1` (stereo not given in full), the T/C (dose: 15.63 mg/kg/injection, schedule: Q04DX004 (sc), vehicle: saline) is 52 % of control; the T/C (dose: 31.25 mg/kg/injection, schedule: Q04DX004 (sc), vehicle: saline) was 16 % of control; the T/C (dose: 62.5 mg/kg/injection, schedule: Q04DX004 (sc), vehicle: saline) is 18 % of control.
With `c1ccc2sc(SSN3CC4CCC(CC4)C3)nc2c1`, the T/C was 120 % of control under setting [2] and 96 % of control (dose: 400.0 mg/kg/injection, schedule: Q01DX010 (sc), vehicle: saline with Tween-80).
Turning to `CCN1/C(=C/C=C/C=C\C=C\c2sc3ccc4ccccc4c3[n+]2CC)Sc2ccc3ccccc3c21`, the T/C (dose: 25.0 mg/kg/injection, schedule: Q04DX004 (sc), vehicle: saline with Tween-80) is 85 % of control; the T/C (dose: 50.0 mg/kg/injection, schedule: Q04DX004 (sc), vehicle: saline with Tween-80) is 54 % of control; the T/C (dose: 100.0 mg/kg/injection, schedule: Q04DX004 (sc), vehicle: saline with Tween-80) was 123 % of control; the T/C (dose: 200.0 mg/kg/injection, schedule: Q04DX004 (sc), vehicle: saline with Tween-80) is 107 % of control.
Turning to `CSc1cc(=O)n2c3ccccc3c3ccnc1c32`, the T/C (dose: 80.0 mg/kg/injection, schedule: Q04DX004 (sc), vehicle: saline with Tween-80) is 88 % of control; the T/C (dose: 160.0 mg/kg/injection, schedule: Q04DX004 (sc), vehicle: saline with Tween-80) was 91 % of control; the T/C (dose: 320.0 mg/kg/injection, schedule: Q04DX004 (sc), vehicle: saline with Tween-80) is 110 % of control; the T/C (dose: 640.0 mg/kg/injection, schedule: Q04DX004 (sc), vehicle: saline with Tween-80) was 58 % of control.
For the compound `CN(N=O)C(N)=O`, the T/C was 119 % of control (dose: 12.5 mg/kg/injection, schedule: Q01DX010 (sc), vehicle: saline with Tween-80); 41 % of control under setting [1]; 101 % of control under setting [3].
For `OCCO`, the T/C was 85 % of control (dose: 4.0 % in 0.5 ml injection vol, schedule: Q04DX004 (sc), vehicle: other); 46 % of control (dose: 8.0 % in 0.5 ml injection vol, schedule: Q04DX004 (sc), vehicle: other); 26 % of control (dose: 16.0 % in 0.5 ml injection vol, schedule: Q04DX004 (sc), vehicle: other).
In the case of `C(CC1CO1)C1CO1` (stereo not given), the T/C (dose: 50.0 mg/kg/injection, schedule: Q01DX010 (sc), vehicle: saline) was 35 % of control and the T/C (dose: 100.0 mg/kg/injection, schedule: Q01DX010 (sc), vehicle: saline) is 37 % of control.
Turning to `CCCCCCCCCCS(=O)CC(CO)NC(=O)/C=C/c1c(C)[nH]c(=O)[nH]c1=O` (stereo not given), the T/C reads like this: (dose: 9.38 mg/kg/injection, schedule: Q04DX004 (sc), vehicle: distilled water + Tween-80) 90 % of control; (dose: 18.75 mg/kg/injection, schedule: Q04DX004 (sc), vehicle: distilled water + Tween-80) 100 % of control; (dose: 37.5 mg/kg/injection, schedule: Q04DX004 (sc), vehicle: distilled water + Tween-80) 80 % of control.
For `CCOC(=O)c1[nH]c2cccc3c2c1CC(Br)C3=O` (stereo not given), the T/C was 81 % of control under setting [4]; 81 % of control under setting [5]; 71 % of control under setting [6]; 71 % of control (dose: 1200.0 mg/kg/injection, schedule: Q04DX004 (sc), vehicle: saline with Tween-80).
As to `C[Si](C)(C)O/C=C1/CCOC1=O`, the T/C runs as follows: under setting [3], 98 % of control; (dose: 200.0 mg/kg/injection, schedule: Q04DX004 (sc), vehicle: suspension in saline) 93 % of control; (dose: 800.0 mg/kg/injection, schedule: Q04DX004 (sc), vehicle: suspension in saline) 107 % of control.
Take `Nc1ccc(Cl)cc1N`: the T/C is 41 % of control (dose: 450.0 mg/kg/injection, schedule: Q04DX004 (sc), vehicle: saline with Tween-80); 78 % of control (dose: 900.0 mg/kg/injection, schedule: Q04DX004 (sc), vehicle: saline with Tween-80); 30 % of control (dose: 1800.0 mg/kg/injection, schedule: Q04DX004 (sc), vehicle: saline with Tween-80).
`CCN(CC)c1ccc2cc(-c3nc4ccccc4n3C)c(=O)oc2c1`: the T/C by setting is: under setting [7], 82 % of control; under setting [8], 67 % of control; under setting [9], 88 % of control.
Consider `O=c1s[se]c2ccccc12`, for which the T/C was 108 % of control under setting [7], 48 % of control under setting [8] and 74 % of control under setting [10].
As for `CC(=O)Oc1c[nH]c(=O)[nH]c1=O`, the T/C (dose: 100.0 mg/kg/injection, schedule: Q04DX004 (sc), vehicle: distilled water + Tween-80) is 122 % of control; the T/C (dose: 200.0 mg/kg/injection, schedule: Q04DX004 (sc), vehicle: distilled water + Tween-80) is 117 % of control; the T/C (dose: 400.0 mg/kg/injection, schedule: Q04DX004 (sc), vehicle: distilled water + Tween-80) is 107 % of control; the T/C (dose: 800.0 mg/kg/injection, schedule: Q04DX004 (sc), vehicle: distilled water + Tween-80) is 93 % of control.
`O=CC(O)C(O)C(O)C(O)C(=O)O.[NH-]C1CCCCC1[NH-].[Pt+2]` (stereo not given): the T/C runs as follows: (dose: 9.38 mg/kg/injection, schedule: Q04DX004 (sc), vehicle: suspension in saline) 44 % of control; (dose: 18.75 mg/kg/injection, schedule: Q04DX004 (sc), vehicle: suspension in saline) 62 % of control.
Regarding `ClCc1ccc2ccccc2n1`, the T/C by setting is: (dose: 75.0 mg/kg/injection, schedule: Q04DX004 (sc), vehicle: saline with Tween-80) 82 % of control; under setting [4], 88 % of control; under setting [5], 86 % of control; under setting [6], 53 % of control.
As for `Cc1ccc(S(=O)(=O)NC(=O)C2C(=O)CC3(CCCCC3)CC2=O)cc1`, the T/C reads like this: under setting [8], 80 % of control; under setting [9], 84 % of control; under setting [10], 58 % of control.
On to `CCOC(=O)C(CC(C)C)NC(=O)C(N)Cc1ccc(N(CCCl)CCCl)cc1` (stereo not given), for which the T/C reads like this: (dose: 7.5 mg/kg/injection, schedule: Q04DX004 (sc), vehicle: water) 81 % of control; (dose: 15.0 mg/kg/injection, schedule: Q04DX004 (sc), vehicle: water) 105 % of control and 118 % of control; (dose: 30.0 mg/kg/injection, schedule: Q04DX004 (sc), vehicle: water) 82 % of control and 86 % of control; (dose: 60.0 mg/kg/injection, schedule: Q04DX004 (sc), vehicle: water) 7 % of control.
On to `CC1CN1C(=O)NCCCCCCNC(=O)N1CC1C` (stereo not given), for which the T/C reads like this: (dose: 10.0 mg/kg/injection, schedule: Q04DX004 (sc), vehicle: Klucel (hydroxypropylcellulose) (HPC)) 36 % of control; (dose: 40.0 mg/kg/injection, schedule: Q04DX004 (sc), vehicle: Klucel (hydroxypropylcellulose) (HPC)) 16 % of control.
In the case of `COc1cccc2c1C(=O)c1c(O)c3c(c(O)c1C2=O)C[C@@](O)(C(=O)COC(=O)c1cccnc1)C[C@@H]3OC1CC(N)C(O)C(C)O1` (stereo not given in full), the T/C (dose: 6.0 mg/kg/injection, schedule: Q04DX004 (sc), vehicle: saline) was 44 % of control and 65 % of control.
`CC(=O)NCCCCCCNC(C)=O`: the T/C is 88 % of control (dose: 200.0 mg/kg/injection, schedule: Q01DX010 (sc), vehicle: saline); 95 % of control (dose: 800.0 mg/kg/injection, schedule: Q01DX010 (sc), vehicle: saline); 97 % of control and 117 % of control (dose: 1600.0 mg/kg/injection, schedule: Q01DX010 (sc), vehicle: saline); 110 % of control (dose: 3200.0 mg/kg/injection, schedule: Q01DX010 (sc), vehicle: saline).

The record behind these values is PubChem BioAssay AID206 (DTP/NCI, 2004).
